Assay results taken from article PMC8903780, “Therapeutic efficacy of an injectable formulation of purinostat mesylate in SU-DHL-6 tumour model” (Annals of Medicine, 2022).

Key:
SU-DHL-6 cells = experiment: Annexin V-FITC/PI flow cytometry apoptosis assay; format: cell-based, human; settings: 6 nM, 48 h
Procedure: The pro-apoptotic effect of the PM/HP-β-CD complex on SU-DHL-6 cells was investigated by flow cytometry. […] cells in good condition were collected and inoculated in the six-well plate with 2⋄10^5 cells per well. After being cultured for 24 h, cells were treated with PM and PM/HP-β-CD inclusion at 3 nM and 6 nM, using LBH589 at 6 nM as the positive control. The cells without drug treatment were the negative control. After 48 h incubation, the cells were then processed by annexin V-FITC/PI staining as the manufacturer’s instructions (KeyGen, 100 assays).

[1] = tested on: human double-hit lymphoma SU-DHL-6 xenograft tumours; format: in vivo; settings: positive control groups, dose column – (RTX 10 mg/kg)
Procedure: To better determine the anti-tumour activity of the PM/HP-β-CD complex, the SU-DHL-6 cell line xenografts were established in immunodeficiency mice. The NOD/SCID mice were subcutaneously inoculated 7 × 10^6 cells per mouse. […] A mimic of HyperCVAD regimen, standard chemotherapy for B cell lymphoma ([22],[23]), especially aggressive subtypes, for example, double-hit lymphoma, was set as a positive control group for comparison (Table 2). Satellite groups were set up in the 10 mg/kg group, 20 mg/kg group, and the Hyper-CVAD group. Animals in the satellite groups were not sacrificed at the end of the treatment and underwent long-term treatment for further investigation. In the survival study, the animal mortality criterion was that the tumour volume reached 3000 mm^3 or the individual animal died, and the animal survival time was statistically analysed.
When the experimental period was over, the tumour was weighed and photographed, the main organs and tumours were collected, fixed, and embedded in paraffin for Histological and immunohistochemical analysis.

## Cc1[nH]c2ccccc2c1CCNCc1ccc(/C=C/C(=O)NO)cc1 [LBH589, reference compound]
SU-DHL-6 cells
  apoptotic SU-DHL-6 cells: 60.1%
[1]; 14 days
  RTV: 26.54
  Tumour volume T/C%: 101.83%
  Tumour weight (g) X ± SD: 3.81 ± 1.08 g
  Tumour weight Inhibition (%): 22.72%
[1]; begin of treatment
  Tumour volume (mm^3) X ± SD Begin: 152.7 ± 30.6 mm^3
[1]; end of 14 days treatment
  Tumour volume (mm^3) X ± SD End: 4015.5 ± 1048.0 mm^3
[1]; regimens Table 2, 14 days
  Number End/begin: 7/7
